According to patent US20240368104A1, “Novel Dialkoxynaphtho[2,3-C]Furan-1(3H)-One Derivatives and Pharmaceutical Composition For Preventing or Treating Respiratory Disease or SARS-COV-2 Infection Disease, Comprising Same” (priority 2021, published 2024):
Where two headings read alike, the source gives them in different places.

Legend:
SARS-COV-2 = experiment: microbe, parasite or virus in culture; assay type: cell-based; set-up: SI (Selectivity Index, CC50/IC50): unit not given here; details: for SI (Selectivity Index, CC50/IC50): SARS-COV-2, values >50 assumed to be 50; for IC50: read-out: SARS-COV-2 inhibition (IC50)
in vitro = details: African green monkey
[1] = Severe acute respiratory syndrome coronavirus 2, Vero, 24 h
[2] = Severe acute respiratory syndrome coronavirus 2, Vero cells, 24 hours infection

Compound	SI (Selectivity Index, CC50/IC50) (SARS-COV-2)	IC50 (SARS-COV-2; [1]) [nM]	CC50 (in vitro) [nM]	IC50 (SARS-COV-2; [2]) [nM]
COCCN(C)c1ccc(-c2c3c(cc4cc(OC)c(OC)cc24)COC3=O)cn1.Cl [Example 168, 6,7-dimethoxy-9-(6-((2-methoxyethyl)(methyl)amino)pyridin-3-yl)naphtho[2,3-c]furan-1(3H)-one hydrochloride]	42.46	1180	> 50000	–
COc1cc2cc3c(c(-c4ccc5c(c4)N(C)CCC5)c2cc1OC)C(=O)OC3 [Example 170, 6,7-dimethoxy-9-(1-methyl-1,2,3,4-tetrahydroquinolin-7-yl)naphtho[2,3-c]furan-1(3H)-one]	24.25	–	> 50000	2060
COc1cc2cc3c(c(-c4ccc(N(C)C5CC5)nc4)c2cc1OC)C(=O)OC3 [Example 171, 9-(6-(cyclopropyl(methyl)amino)pyridin-3-yl)-6,7-dimethoxynaphtho[2,3-c]furan-1(3H)-one]	885.42	–	> 50000	60
COc1cc2cc3c(c(-c4ccc(N[C@H]5CCc6c(cccc6OC)C5)nc4)c2cc1OC)C(=O)OC3.Cl [Example 172, (S)-6,7-dimethoxy-9-(6-((5-methoxy-1,2,3,4-tetrahydronaphthalen-2-yl)amino)pyridin-3-yl)naphtho[2,3-c]furan-1(3H)-one]	1.0	> 50000	> 50000	–
COCCOc1cncc(-c2c3c(cc4cc(OC)c(OC)cc24)COC3=O)c1 [Example 173, 6,7-dimethoxy-9-(5-(2-methoxyethoxy)pyridin-3-yl)naphtho[2,3-c]furan-1(3H)-one]	1.0	–	> 50000	> 50000
COCCN(CCOC)c1ccc(-c2c3c(cc4cc(OC)c(OC)cc24)COC3=O)cn1 [Example 174, 9-(6-(bis(2-methoxyethyl)amino)pyridin-3-yl)-6,7-dimethoxynaphtho[2,3-c]furan-1(3H)-one]	2.62	–	> 50000	19100
COc1cc2cc3c(c(-c4ccc(N(C)C5CCCCC5)nc4)c2cc1OC)C(=O)OC3 [Example 175, 9-(6-(cyclohexyl(methyl)amino)pyridin-3-yl)-6,7-dimethoxynaphtho[2,3-c]furan-1(3H)-one]	42.02	–	> 50000	1190
CCC(C)CN(C)c1ccc(-c2c3c(cc4cc(OC)c(OC)cc24)COC3=O)cn1.Cl (stereo not drawn) [Example 176, 6,7-dimethoxy-9-(6-(methyl(2-methylbutyl)amino)pyridin-3-yl)naphtho[2,3-c]furan-1(3H)-one]	22.63	2210	> 50000	–
COc1cc2cc3c(c(-c4ccc(N(C)C5CCCC5)nc4)c2cc1OC)C(=O)OC3 [Example 177, 9-(6-(cyclopentyl(methyl)amino)pyridin-3-yl)-6,7-dimethoxynaphtho[2,3-c]furan-1(3H)-one]	180.12	–	> 50000	280
CCN(C)c1ccc(-c2c3c(cc4cc(OC)c(OC)cc24)COC3=O)cn1 [Example 178, 9-(6-(ethyl(methyl)amino)pyridin-3-yl)-6,7-dimethoxynaphtho[2,3-c]furan-1(3H)-one]	1323.43	–	> 50000	40
COc1cc2cc3c(c(-c4ccc(N(C)Cc5ccc(C)o5)nc4)c2cc1OC)C(=O)OC3 [Example 179, 6,7-dimethoxy-9-(6-(methyl((5-methylfuran-2-yl)methyl)amino)pyridin-3-yl)naphtho[2,3-c]furan-1(3H)-one]	49.02	–	> 50000	1020
CCCCN(C)c1ccc(-c2c3c(cc4cc(OC)c(OC)cc24)COC3=O)cn1 [Example 180, 9-(6-(butyl(methyl)amino)pyridin-3-yl)-6,7-dimethoxynaphtho[2,3-c]furan-1(3H)-one]	73.59	–	> 50000	680
